Paper PMC9821843, “Powerful Potential of Polyfluoroalkyl-Containing 4-Arylhydrazinylidenepyrazol-3-ones for Pharmaceuticals” (Molecules, 2022)
≈ marks a conversion by molar mass, not a printed value. Where “and” joins values, the source holds several entries; their conditions need not be identical. Equal values may be shown once. Read-outs that look alike come from different tables or passages of the source.

What was measured:
[1] = ABTS radical cation scavenging activity assay; parameters: key to ABTS•+-scavenging activity, TEAC (trolox equivalent antioxidant capacity): TEAC = ratio of compound slope to Trolox slope vs ABTS absorbance; conditions: mean ± SEM; for ABTS•+-scavenging activity, TEAC (trolox equivalent antioxidant capacity): n.a. = inactive
Procedure, shortened: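 ABTS•+ (from 7 mM ABTS plus 2.45 mM persulfate) mixed with compound, 5 × 10^–7–4 × 10^–4 M, 1 h at 30 °C; absorbance decrease read at 734 nm. TEAC from slope ratio versus Trolox; IC50 as 50% radical reduction for compounds exceeding 60% reduction at 100 µM.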

[2] = Oxygen radical absorbance capacity (ORAC-FL) assay; conditions: n.a. = inactive; i.t.s. = interferes with test system
Procedure, shortened: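 Fluorescein oxidative degradation by the peroxyl radical generator AAPH is monitored in the presence of test compound, a HAT-based read-out. Activity is expressed relative to Trolox as reference antioxidant.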

[3] = Acute toxicity evaluation in mice (ip); conditions: CD-1, mouse, in vivo, 300 mg/kg
Experimental: The toxicity evaluation was performed on CD-1 mice. […] The tested compounds in 1% starch mucilage were injected intraperitoneally into three mice. Then, animals were observed during 14 days, the number of deaths was counted and % of viability calculated.

Sprague-Dawley (SD) rats = assay: Hot plate test (analgesic activity); assay type: in vivo; conditions: ip; for change in vivo at 15 mg/kg: Rattus norvegicus
Procedure, shortened: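 Test compounds were given i.p. as suspensions in 1% starch mucilage to SD rats (3 male, 3 female per group), vehicle as negative control. At 1 and 2 h post-dose, latency to nociceptive response (jumping, hind paw licking/shaking) on a 50 °C plate was recorded, 30 s cutoff.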

[4] = test system: Neisseria gonorrhoeae ATCC 49226/NCTC 12700; assay: Antibacterial activity against Neisseria gonorrhoeae; assay type: cell-based; conditions: read-out: MIC against Neisseria gonorrhoeae
[5] = hot plate test, rats, dose 15 mg/kg, 1 h, n.a. = inactive (p > 0.05), read-out: Latent Period Prolongation, % 1 h
[6] = hot plate test, rats, dose 15 mg/kg, 2 h, n.a. = inactive (p > 0.05), read-out: Latent Period Prolongation, % 2 h
[7] = 1 h, read-out: Latent Period Prolongation, % 1 h
[8] = 2 h, read-out: Latent Period Prolongation, % 2 h

| Structure (SMILES) | IC50 [1] [µM] | ABTS•+-scavenging activity, TEAC (trolox equivalent antioxidant capacity) [1] | ORAC-FL (TE, antioxidant activity in Trolox equivalents) [2] | survival at 14 days [3] [%] | change in vivo at 15 mg/kg (Sprague-Dawley (SD) rats; [5]) [%] | MIC [4] [µg/mL] | change in vivo at 15 mg/kg (Sprague-Dawley (SD) rats; [6]) [%] | analgesic activity in the hot plate test (Sprague-Dawley (SD) rats; SD rats, dose 15 mg/kg, 1 and 2 h) | change in vivo at 15 mg/kg (Sprague-Dawley (SD) rats; [7]) [%] | change in vivo at 15 mg/kg (Sprague-Dawley (SD) rats; [8]) [%] |
| --- | --- | --- | --- | --- | --- | --- | --- | --- | --- | --- |
| O=C1NN=C(C(F)(F)F)/C1=N/Nc1ccccc1 [5a, (Z)-4-(2-Phenylhydrazinylidene)-5-(trifluoromethyl)-2,4-dihydro-3H-pyrazol-3-one] | 42.8 ± 2.3 | 0.50 ± 0.03 | 2.30 ± 0.20 | 100 | 40 | – | – | – | – | – |
| Cc1ccc(N/N=C2\C(=O)NN=C2C(F)(F)F)cc1 [5b, (4Z)-4-[2-(4-Methylphenyl)hydrazinylidene]-5-(trifluoromethyl)-2,4-dihydro-3H-pyrazol-3-one] | 46.2 ± 2.4 | 0.42 ± 0.03 | 2.37 ± 0.32 | 100 | 69.5 | 62.5 (≈ 231 µM) | 59.7 | – | – | – |
| O=C1NN=C(C(F)(F)F)/C1=N/Nc1ccc(Br)cc1 [5c, (4Z)-4-[2-(4-Bromophenyl)hydrazinylidene]-5-(trifluoromethyl)-2,4-dihydro-3H-pyrazol-3-one] | 41.5 ± 2.4 | 0.40 ± 0.02 | 1.73 ± 0.21 | 100 | – | 125 (≈ 373 µM) | 51 | – | – | – |
| Cc1ccc(N/N=C2\C(=O)N(C)N=C2C(F)(F)F)cc1 [5d, (4Z)-2-Methyl-4-[2-(4-methylphenyl)hydrazinylidene]-5-(trifluoromethyl)-2,4-dihydro-3H-pyrazol-3-one] | 161 ± 3.2 | 0.15 ± 0.01 | 1.27 ± 0.15 | 100 | – | 15.6 (≈ 54.9 µM) | – | inactive | – | – |
| Cc1ccc(N/N=C2\C(=O)N(c3ccccc3)N=C2C(F)(F)F)cc1 [5f, (4Z)-4-[2-(4-Methylphenyl)hydrazinylidene]-2-phenyl-5-(trifluoromethyl)-2,4-dihydro-3H-pyrazol-3-one] | – | 0.1 ± 0.006 | i.t.s. | 100 | 63 | 62.5 (≈ 180 µM) | 68 | – | – | – |
| CS(=O)(=O)c1ccc(N/N=C2\C(=O)N(c3ccccc3)N=C2C(F)(F)F)cc1 [5m, (4Z)-4-(2-[4-(Methylsulfonyl)phenyl]hydrazinylidene)-2-phenyl-5-(trifluoromethyl)-2,4-dihydro-3H-pyrazol-3-one] | – | – | i.t.s. | 100 | 116 | 125 (≈ 305 µM) | 144 | – | – | – |
| Cc1ccc(N/N=C2\C(=O)N(c3ccc(S(N)(=O)=O)cc3)N=C2C(F)(F)F)cc1 [5p, (4Z)-2-[4-(Aminosulfonyl)phenyl]-4-[2-(4-methylphenyl)hydrazinylidene]-5-(trifluoromethyl)-2,4-dihydro-3H-pyrazol-3-one] | – | 0.03 ± 0.002 | i.t.s. | 100 | 62.1 | 62.5 (≈ 147 µM) | 70.9 | – | – | – |
| Cc1ccc(N/N=C2\C(=O)NN=C2C(F)(F)C(F)(F)F)cc1 [6a, (4Z)-4-[2-(4-Methylphenyl)hydrazinylidene]-5-(pentafluoroethyl)-2,4-dihydro-3H-pyrazol-3-one] | 46.8 ± 2.1 | 0.45 ± 0.03 | 2.67 ± 0.29 | 100 | 83.9 | 62.5 (≈ 195 µM) | 63.3 | – | – | – |
| Cc1ccc(N/N=C2\C(=O)N(c3ccccc3)N=C2C(F)(F)C(F)(F)F)cc1 [6b, (4Z)-4-[2-(4-Methylphenyl)hydrazinylidene]-5-(pentafluoroethyl)-2-phenyl-2,4-dihydro-3H-pyrazol-3-one] | – | 0.04 ± 0.002 | – | 100 | 158 | 0.9 (≈ 2.27 µM) | 74.3 | – | – | – |
| Cc1ccc(N/N=C2\C(=O)NN=C2C(F)(F)C(F)(F)C(F)(F)F)cc1 [7a, (4Z)-5-(Heptafluoropropyl)-4-[2-(4-methylphenyl)hydrazinylidene]-2,4-dihydro-3H-pyrazol-3-one] | 41.5 ± 1.8 | 0.54 ± 0.03 | 2.80 ± 0.01 | 100 | – | > 250 | – | – | 42 | 52 |
| Cc1ccc(N/N=C2\C(=O)N(c3ccccc3)N=C2C(F)(F)C(F)(F)C(F)(F)F)cc1 [7b, (4Z)-5-(Heptafluoropropyl)-4-[2-(4-methylphenyl)hydrazinylidene]-2-phenyl-2,4-dihydro-3H-pyrazol-3-one] | – | 0.03 ± 0.002 | – | 100 | – | 31.2 (≈ 69.9 µM) | – | – | 144 | 82.3 |
| CC1=NNC(=O)/C1=N\Nc1ccc(C)cc1 [9a, (4Z)-5-Methyl-4-[2-(4-methylphenyl)hydrazinylidene]-2,4-dihydro-3H-pyrazol-3-one] | 25.4 ± 1.1 | 0.86 and 0.86 ± 0.04 | 3.23 ± 0.50 | 100 | 80.8 | > 250 | – | – | – | – |
| CC1=NN(c2ccccc2)C(=O)/C1=N\Nc1ccc(C)cc1 [9b, (4Z)-5-Methyl-4-[2-(4-methylphenyl)hydrazinylidene]-2-phenyl-2,4-dihydro-3H-pyrazol-3-one] | 28.3 ± 1.2 | 0.8 and 0.80 ± 0.05 | 2.67 ± 0.58 | 100 | – | > 250 | 140 | – | – | – |
